Measured values published in patent publication US5147604A, “Dioxo-aromatic compounds as oxygen scavengers” (Betz Laboratories, Inc., priority 1988, dated 1992).

Legend:
[1] = Oxygen scavenging efficacy at elevated temperature and pressure in hot water flow system (Example 1, TABLE 1); details: for % O2 Removed: 78°±3°C, 4±1 psig, contact 4±0.2 min, feedwater concentration, pH and initial O2 (ppm) vary by line of TABLE 1, values below 20% may be experimental artifacts; for oxygen scavenging (in words): test water, TABLE 1
Description: In a first series of tests, the oxygen scavenging efficacies of various materials were evaluated under conditions of elevated temperature and pressure. The test apparatus used was essentially a stainless steel hot water flow system equipped with appropriate monitoring instrumentation. Demineralized feedwater, adjusted to the appropriate pH and initial dissolved oxygen level (controlled by nitrogen sparging), was pumped from a reservoir at ambient temperature into a once-through heater. Temperature was monitored continuously by means of thermocouples at several locations along the length of the flow tubing. A solution containing the oxygen scavenger test material was loaded into a pump driven syringe and fed continuously to the heated flow stream through a port containing a stainless steel ribbon mixing baffle. The feedwater containing dissolved oxygen and the test material then traversed the flow tubing via a by-pass comprising an additional length of coiled tubing. Contact (or reaction) time of the test material and dissolved oxygen was governed by the choice of coil length. The tendency of the temperature to drop during residence in the coiled tubing was offset by the use of thermostatted heating tapes which maintained the temperature in this tubing at 78°±3°C. Upon exiting the coiled tubing, the stream flowed through a sample cooler to render the temperature of the liquid compatible with the operating range of a membrane-type dissolved oxygen probe. The cooled liquid was analyzed for dissolved oxygen via a D.O. flow cell, and pH was potentiometrically monitored in the flow tube immediately downstream of the D.O. probe. Outputs of the temperature, pH and dissolved oxygen probes during operation were monitored via strip chart recorders. The final destination of the reaction mixture was a reservoir which could be drained for analysis of reaction products, if desired.
Temperature in the system could be maintained at 78°±3° C. under 4±1 psig. Residence time of the feedwater in the flow tube from chemical feed point to D.O. flow cell outlet was 4±0.2 minutes. […] Entry into and residence in the sample cooler accounted for 0.5 minute of the total contact time. […]
The test solutions were prepared by initially mixing 10 grams of test material and 90 grams of demineralized water in glass bottles and allowing the mixture to remain in a shaker for several hours. If complete dissolution for a given material was observed after shaking, the pH of the solution was measured. When the pH of the solution was below 10.0, 7N sodium hydroxide was added dropwise until this value was reached. The quantity of added sodium hydroxide was recorded and later used in corrections for the active concentration of the solution. When the pH value of a stock solution was above pH 10.0 without requiring the addition of caustic, the solution was not further modified.
Results of these tests are reported in TABLE 1 below in terms of percent oxygen removed from the test stream. The precision of the initial and final dissolved oxygen values reported is approximately ±10%. […] The experimental uncertainties decrease with increasing values of percent dissolved oxygen removal.

[2] = Oxygen scavenging in feedwater of a working boiler, field-type conditions (Example 2, TABLES 2 and 3); details: TABLE 2, actives 1.0-2.2 ppm, pH 8.7-9.4, steam load 11 or 15 (1000 lbs./hr.), initial O2 3.8-8 ppb by line
test rats = details: NIOSH Registry of Toxic Effects of Chemical Substances (1976); cited from earlier work
[3] = Low (room) temperature reactivity with oxygen (Example 4, TABLE 5); details: mole ratio of treatment to O2 and initial O2 by line of TABLE 5; for % O2 Removed, 1 Minute: room temperature 22.5-26.5 °C, pH 8.6-10.0; for % O2 Removed, 5 Minutes: room temperature 24.0-26.5 °C, pH 9.1-10.0
Text: In a further series of tests, the low (room) temperature reactivities with oxygen of various dioxo compounds were compared to that of hydrazine. The test apparatus basically consisted of a 1 liter three-necked flask fitted with a dissolved oxygen probe and a pH electrode. The intent of this apparatus was to show reaction kinetics differences rather than precise measurements (within seconds) of reaction times.
The flask was filled with deionized water which had been stripped of some dissolved oxygen by bubbling nitrogen through a diffuser stone. The pH was adjusted to the desired level with sodium hydroxide. The flask was sealed with a rubber septum, the dissolved oxygen probe and an inlet stopper. A magnetic stirrer bar was left in the flask for mixing. The mixer was turned on, and dissolved oxygen and temperature readings were recorded until the dissolved oxygen reached a constant value. Next, the appropriate quantity of additive was injected through the septum using a hypodermic syringe. The initial mole ratio of treatment to dissolved oxygen was determined by weighing feed chemical and measuring the oxygen concentration. […] Dissolved oxygen and temperature readings were then taken at appropriate time intervals.
The results of these tests are provided below in TABLE 5 in terms of relative amounts of % oxygen removed at the time intervals indicated (1 and 5 minutes).

[4] = Thermal decomposition studies of aqueous solutions in autoclaves (Example 5, TABLE 6); details: hydrazine 60 ppm, 4 hours
[5] = to nitrogen, hydrogen and ammonia; cited from earlier work

For `O=C1C=CC(=O)c2ccccc21` [1,4-naphthoquinone], the “% O2 Removed” value [1] was 99% and the “% O2 Removed” value [2] was 88%.

With `O=Cc1ccc(O)cc1O` [2,4-dihydroxybenzaldehyde] the “% O2 Removed” value [1] was 14% and the “oxygen scavenging (in words)” value [1] was “ineffective”.

In the case of `O=Cc1cc(O)ccc1O` [2,5-dihydroxybenzaldehyde], the “% O2 Removed” value [1] is reported as 98%.

For `O=[N+]([O-])c1ccccc1O` [2-nitrophenol], the “% O2 Removed” value [1] was 0%.

For `O=Cc1ccc(O)c(O)c1` [3,4-dihydroxybenzaldehyde], the “% O2 Removed” value [1] was 73 ± 2%.

For `CC(C)(C)c1ccc(O)c(O)c1` [4-tert-butylcatechol], the “LD50 Oral Rat” value (test rats) is given as 2820 mg/kg, the “% O2 Removed” value [1] is given as 97% and the “% O2 Removed” value [2] is given as 37%.

In the case of `O=C1C=CC(=O)C=C1` [benzoquinone], the “% O2 Removed” value [1] is reported as 96%, the “oxygen scavenging (in words)” value [1] is reported as “quite efficacious as an oxygen scavenger” and the “% O2 Removed, 1 Minute” value [3] is reported as 76%. The “% O2 Removed, 5 Minutes” value [3] was 90% and the “% O2 Removed” value [2] was 57%.

For `Oc1ccccc1O` [catechol], the “LD50 Oral Rat” value (test rats) is given as 3890 mg/kg, the “% O2 Removed” value [1] is given as 96% and the “% O2 Removed, 1 Minute” value [3] is given as 7%. The “% O2 Removed, 5 Minutes” value [3] was 30% and the “% O2 Removed” value [2] was 75%.

In the case of `NN` [hydrazine], the “LD50 Oral Rat” value (test rats) is given as 60 mg/kg, the “% Decomposition” value ([4]; 0 psig, 70 °F.) is given as 0% and the “% Decomposition” value ([4]; 1100 psig, 550 °F.) is given as 52%. The “% Decomposition” value ([4]; 1620 psig, 600 °F.) was 79%, the “% Decomposition” value ([4]; 2000 psig, 636 °F.) was 93% and the “temperature above which it decomposes” value [5] was “Above 400 ° F”.

For `Oc1ccc(O)cc1` [hydroquinone], the “LD50 Oral Rat” value (test rats) is listed as 320 mg/kg.

With `Cc1ccccc1O` [o-cresol] the “% O2 Removed” value [1] was 17%.

For `Nc1ccccc1N` [o-phenylenediamine], the “oxygen scavenging (in words)” value [1] was “ineffective”.

In the case of `O=C(O)c1ccc(O)cc1` [p-hydroxybenzoic acid], the “% O2 Removed” value [1] is reported as 13%.

With `COc1ccc(O)cc1` [p-methoxyphenol] the “% O2 Removed” value [1] was 40%.

In the case of `Nc1ccc(N)cc1` [p-phenylenediamine], the “oxygen scavenging (in words)” value [1] is reported as “ineffective”.

With `Oc1ccc(-c2ccccc2)cc1` [p-phenylphenol] the “% O2 Removed” value [1] was 40%.

For `Oc1cccc(O)c1` [resorcinol], the “oxygen scavenging (in words)” value [1] was “ineffective”.
